Entries after “also recorded” stand apart in the source; their conditions may differ. Positions of bridges follow the written chain, without caps; N, C: chain ends. No end group written: not given here.
Columns and labels:
[1] = system: regulated intramembrane proteolysis (RIP) of β1 in 1610β1 cells; test: Western blot of full-length β1 and C-terminal fragment (regulated intramembrane proteolysis) in 1610β1 cells; format: cell-based, Chinese hamster; details: for CTF levels on immunoblots, peptide alone: without DAPT
Procedure: (FIG. 8A) Representative Western blot showing 0.1% DMSO, 50 μM βadp1, 1 μM DAPT, and 50 μM+1 μM DAPT treatments at 6 hours, 24 hours, and 48 hours of treatment. Cells were plated and treated simultaneously, and then lysate was collected at the indicated 6, 24, or 48 hours. Detection of the β1 subunit was done using a c-terminal antibody “Na Channel β1 Subunit (D4Z2N) Rabbit mAb #13950” (Cell Signaling Technologies). This allowed for labeling of both the full length β1 protein (37 kD) and the C-terminal fragment (CTF) (19 kD). […] (FIG. 8B) Quantification of the 37 kD full-length β1 protein at 6, 24, and 48 hours. All results are normalized to DMSO treatment at each timepoint and then shown as a ratio of DAPT+βadp1/DAPT to account for the DAPT treatment in each. […] (FIG. 8C) Quantification of the 19 kD CTF of β1. All results are normalized to DMSO treatment at each timepoint and then shown as a ratio of DAPT+βadp1/DAPT to account for the DAPT treatment in each.
β1 abundance was further examined using Western blotting (WB) at time points of 6, 24, and 48 hours after initial βadp1 treatment. Cells were plated in 35 mm cell culture dishes and treated with 50 μM βadp1 or βS2L solubilized in a final concentration of 0.1% DMSO at the time of plating. The control was DMSO vehicle. To determine whether βadp1 affects the RIP of β1, cells were also treated with 1 μM DAPT, an inhibitor of γ-secretase, to cause an accumulation of the intermediate substrate in the RIP of β1, the CTF. Whole cell lysate was collected and run on stain free gels and transferred to a Polyvinylidene difluoride (PVDF) membrane. Membranes were labeled with an antibody against the c-terminal domain of β1 (Cell Signaling Technologies).
β1 has been reported to undergo a process of […] intramembrane proteolysis (RIP) by BACE1 and γ-secretase, ultimately resulting in the production of a soluble intracellular domain (ICD) that is translocated to the nucleus, with correlated effects on gene transcription. Applicant sought to determine if the β1 targeting peptides affect the RIP process in 1610β1 cells and whether any effect relates to changes in the distribution and abundance of β1 immunolabeling we observed in this model. First, to confirm that β1 underwent RIP in 1610β1 cells, Applicant treated cells with the y-secretase inhibitor DAPT. In the presence of DAPT, it was noted that the 19 kD Carboxyl-Terminal Fragment (CTF) accumulated in Western blots from cells sampled at 6, 24 and 48 hours following initiation of treatment, similar to results published by others in CHL cells and MDA-MB-231 breast cancer cells (FIG. 12A). Without DAPT treatment the 19 kD CTF was virtually non-detectable at any of the time points sampled (FIG. 12A). Next, Applicant co-treated cells with DAPT in the presence of βadp1 or βS2L. […]

[2] = system: 1610β1 cells (β1/SCN1B-mediated cell adhesion); test: Electric cell-substrate impedance sensing (ECIS) of cell adhesion in 1610β1 monolayers; format: cell-based, Chinese hamster; details: for resistance compared to vehicle over the entire time course / resistance compared to DMSO vehicle at 5 hours / resistance compared to DMSO vehicle at (up to) 20 hours / resistance compared to DMSO vehicle at 40 hours: 10 μM; for resistance compared to vehicle over the entire time course: 40 hour time course; for resistance compared to DMSO vehicle at 5 hours / resistance compared to DMSO vehicle at (up to) 20 hours / resistance compared to DMSO vehicle at 40 hours: single treatment at plating; for acute de-adhesion effects: dimerized peptides, ECIS time course
From the text: FIGS. 3A-3E show βadp1 binding and identification of βadp1 derived smaller peptide fragments with similar function. […] Positive and negatively charged moieties on the adhesion surface of the β1 Ig loop are shown in red and blue (as represented in greyscale), respectively. […] Peptides towards the carboxyl terminus of βadp1, especially those incorporating hydrophobic leucine residues, show the most adhesion reducing activity. Based on the ECIS time course data, and predictions from molecular modeling of likely binding in the hydrophobic pocket β1/SCN1B Ig domain binding surface, the sequence LQLEED (SEQ ID NO: 4) was selected as a short peptide candidate drug molecule.
In this Example to evaluate the long term effects (effects after more than 2 hours post treatment) of βadp1 and derivatives on β1 cell adhesion, electric cell-substrate impedance sensing (ECIS) was employed. ECIS measures the impedance of electric current. 4000 Hz is the recommended frequency for measuring changes in impedance between cells, assaying intercellular adhesion levels, as mediated by β1. […] To assist in focusing on the active sequence of βadp1 used to create the other peptides in this disclosure, ECIS experiments were completed using multiple small sequences as shown in FIGS. 3A-3E. From this, and in combination with the in silico experiments, it was determined that LQLEED (SEQ ID NO: 4) was the optimal sequence. […] For the other dimerized peptides, ERF residues were included on the c-terminal end of the LQLEED (SEQ ID NO: 4) peptide because residue R85 in SCN1B is associated with atrial fibrillation. Cells were plated in 8 well plates lined with 40 electrodes and treated with a 10 μM concentration of βadp1 in a final concentration of 0.1% DMSO at the time of plating or DMSO vehicle.
βadp1 is a peptide mimetic of a 20 amino acid (aa) sequence from the immunoglobulin (Ig) domain of the voltage gated sodium channel (VGSC) β1 subunit involved in adhesive interactions. […] Applicant synthesized a dimerized variant of the 20 aa βadp1 (FIG. 1) and tested it in monolayers of 1610 Chinese Hamster Lung cells stably expressing the β1 subunit (1610ß1) using electric cell substrate impedance sensing (ECIS) to determine whether it acted as an agonist that promoted β1-mediated adhesion.

[3] = system: β1 protein (SCN1B) in 1610β1 cells; test: Confocal immunofluorescence of β1 abundance and Biotin-βadp1 uptake in 1610β1 cells; format: cell-based, Chinese hamster; details: for upregulation of β1 protein 48 hours after treatment: 50 μM; for upregulation of β1 protein 48 hours after treatment / β1 abundance (immunolabeling) at 48 hours compared to DMSO treated cells: FIG. 7; for β1 abundance (immunolabeling) at 48 hours compared to DMSO treated cells: 10 μM; for upregulation of β1 protein 48 hours after treatment / β1 abundance (immunolabeling) at 48 hours compared to DMSO treated cells / β1 abundance at cell-cell borders / in the membrane: 48 hours; for β1 abundance at cell-cell borders / in the membrane: FIG. 7D-7E
Procedure: Cells were then allowed to grow for 1-48 hours, after which they were fixed with 4% paraformaldehyde. […] White scale bar: 10 μm
FIGS. 7A-7D show 1610β1 cells treated for 48 hours with 10 μM concentrations of DMSO or βadp1 derived peptides (FIG. 7A) 0.1% DMSO, (FIG. 7B) βadp1, (FIG. 7C) LQLEED (SEQ ID NO: 4), (FIG. 7D) βS2L.
Next, the abundance of β1 protein was evaluated using confocal microscopy immunofluorescence (IF). 1610β1 cells were plated in 12 well plates on lysine coated coverslips and allowed to grow for 48 hours. Cells were then treated with a 50 μM concentration of βadp1, βS2L, βS2C, or LQLEED (SEQ ID NO: 4) or βadp1 conjugated with a Biotin molecule (B-βadp1) solubilized in a final concentration of 0.1% dimethyl sulfoxide (DMSO). Controls for the experiment were cells treated with only 0.1% DMSO vehicle. Cells were then fixed in 4% paraformaldehyde and stained with an antibody against the extracellular domain of β1 (Virginia Tech) and a streptavidin-Alexa647 (Invitrogen) conjugate to stain B-βadp1.
Applicant undertook immunolabeling studies to further probe the effect of the mimetic peptides on 1610β1 cells over time courses of up to 2 days. […] Prompted by this observation we examined what effects of 10 μM concentrations of LQLEED (SEQ ID NO: 4) and βS2L on β1 immunolabeling at or 48 hours over the same time course.

[4] = system: Isolated guinea pig hearts; details: cited from earlier work
[5] = system: β1-mediated adhesion and gap junction-associated VGSC activity in cultured cells; details: 1 to 2 hours; cited from earlier work
[6] = system: parental cell line of 1610 cells expressing negligible levels of β1; test: ECIS in parental 1610 cells; format: cell-based, Chinese hamster
[7] = system: 1610β1 cells (β1/SCN1B-mediated cell adhesion); test: Electric cell-substrate impedance sensing (ECIS) of cell adhesion in 1610β1 monolayers; format: cell-based, Chinese hamster
[8] = isolated guinea pig hearts treated acutely

C[C@H](NC(=O)Cc1cc(F)cc(F)c1)C(=O)N[C@H](C(=O)OC(C)(C)C)c1ccccc1 [DAPT, reference compound]
accumulation of the 19 kD C-terminal fragment (CTF) of β1 with DAPT ([1]; 1 μM DAPT, 6, 24 and 48 hours, versus no DAPT): accumulation of the 19KD CTF; also recorded: accumulated

CLQLEEDERF-G-LQLEEDERFC (CLQLEEDERFGLQLEEDERFC; disulfide 1-21 (inferred)) [βS2C, dimeric peptide with NT and CT cysteines, cyclizable via disulfide bonding]
resistance compared to vehicle over the entire time course [2]: increased resistance throughout the time course | resistance compared to DMSO vehicle at 5 hours ([2]; 5 hours): increase resistance; also recorded: significantly elevated over vehicle control | resistance compared to DMSO vehicle at (up to) 20 hours [2]: increased resistance | acute de-adhesion effects [2]: no acute de-adhesion effects detectable | upregulation of β1 protein 48 hours after treatment [3]: upregulation of β1 protein

FVKILRYENEVLQLEEDERF [βadp1]
resistance compared to DMSO vehicle at 5 hours ([2]; 5 hours): decrease resistance | resistance compared to DMSO vehicle at (up to) 20 hours [2]: decrease resistance; also recorded: significantly decreased resistance; also recorded: significant decreases in resistance | resistance compared to DMSO vehicle at 40 hours [2]: no significant difference; also recorded: effects of βadp1 had reversed; also recorded: no longer significantly below those of controls | ECIS-assayed adhesion ([2]; 10 and 100 μM treatments): significant decreases in ECIS-assayed adhesion | normalized resistance of monolayers (marker of cell adhesion mediated by β1/SCN1B) relative to control ([2]; 1610 cells exogenously expressing β1/SCN1B, over 20 hours, FIG. 3D): significantly reduces normalized resistance | regulated intramembrane proteolysis (RIP) of β1 ([1]; inferred from CTF accumulation with DAPT): increasing the amount of RIP that β1 undergoes; also recorded: increases the RIP of β1 | CTF levels on immunoblots, peptide alone [1]: Neither βadp1 or βS2L alone appeared to have consistent effects | perinexal adhesion at early time-points ([4]; <2 hours): perinexal de-adhesion | conduction velocity [4, 8]: decreased conduction velocity | perinexus width [4, 8]: widened perinexus | gap junction-associated VGSC activity [5]: inhibits | β1-mediated adhesion [5]: inhibits β1-mediated adhesion | β1 abundance (immunolabeling) at 48 hours compared to DMSO treated cells [3]: increase in β1 abundance | β1 levels at 48 hours ([3]; cells monitored up to 48 hours from the initial treatment): notably increased

FVKILRYENEVLQLEEDERGFVKILRYENEVLQLEEDER [Db1-βadp1, dimerized version of βadp1 with a glycine linker]
intercellular resistance in parental 1610 cells [6]: did not result in increased intercellular resistance | concentration dependence of the increase in resistance ([7]; 100 μM versus 50 μM, 24 hours): concentration dependent effect; also recorded: higher for 100 μM Db1-βadp1 versus the 50 μM treatment | resistance compared to DMSO/vehicle control ([7]; Db1-βadp1 100 μM and 50 μM, over 24 hours of treatment, n=2, FIG. 4): increased resistance

LQLEED [short monomeric peptide towards the carboxyl terminus of βadp1]
resistance compared to DMSO vehicle at 5 hours ([2]; 5 hours): decrease resistance; also recorded: decreased levels of intercellular resistance | resistance compared to DMSO vehicle at (up to) 20 hours [2]: decreased resistance; also recorded: significant decreases in resistance | β1 abundance (immunolabeling) at 48 hours compared to DMSO treated cells [3]: increase in β1 abundance; also recorded: appeared to increase | β1 abundance at cell-cell borders / in the membrane [3]: occasional evidence of increased intensity of immunolabeling signal at cell borders

LQLEEDERF-G-LQLEEDERF (LQLEEDERFGLQLEEDERF) [βS2L]
resistance compared to vehicle over the entire time course [2]: increased resistance throughout the time course; also recorded: significantly increasing resistance | resistance compared to DMSO vehicle at 5 hours ([2]; 5 hours): increase resistance; also recorded: significantly elevated over vehicle control | resistance compared to DMSO vehicle at (up to) 20 hours [2]: increase resistance | resistance compared to DMSO vehicle at 40 hours [2]: continues to increase resistance | resistance relative to that after the LQLEED inhibitory monomer ([2]; 5 hours): 5-6 fold | acute de-adhesion effects [2]: no acute de-adhesion effects detectable | CTF levels on immunoblots, peptide alone [1]: Neither βadp1 or βS2L alone appeared to have consistent effects | β1 abundance (immunolabeling) at 48 hours compared to DMSO treated cells [3]: increase in β1 abundance; also recorded: cell-wide increases in β1 immunolabeling | upregulation of β1 protein 48 hours after treatment [3]: upregulation of β1 protein | β1 abundance at cell-cell borders / in the membrane [3]: increase the 1 abundance at cell-cell borders; also recorded: increase the β1 present in the membrane; also recorded: distinctive increase in signal at cell borders
